{"source": "ChEMBL document CHEMBL5154856", "about": "“Targeting the tumor microenvironment by an enzyme-responsive prodrug of tubulin destabilizer for triple-negative breast cancer therapy with high safety” (Eur J Med Chem, 2022)", "key": {"[1]": {"assay": "Toxicity in nude mouse assessed as ratio of effect on aspartate aminotransferase level […] level in serum at 40 mg/kg, iv administered qd for 3 days (reference value: 1.38)", "assay_type": "organism-based", "conditions": "in vivo, 72 h, time 3 day"}, "[2]": {"assay": "Toxicity in nude mouse assessed as effect on gamma-glutamyl transpeptidase level in serum at 40 mg/kg, iv administered qd for 3 days (Rvb < 2 U/L)", "assay_type": "organism-based", "conditions": "in vivo, 72 h, time 3 day"}, "[3]": {"assay": "Toxicity in nude mouse assessed as effect on mean corpuscular hemoglobin level at 40 mg/kg, iv administered qd for 3 days (reference value: 22.3 pg)", "assay_type": "organism-based", "conditions": "in vivo, 72 h, time 3 day"}, "[4]": {"assay": "Toxicity in nude mouse assessed as effect on lymphocyte level at 40 mg/kg, iv administered qd for 3 days (reference value: 60.90 %)", "assay_type": "organism-based", "conditions": "in vivo, 72 h, time 3 day"}, "HeLa": {"tested_on": "HeLa", "assay": "Antiproliferative activity against human HeLa cells assessed as inhibition of cell growth incubated for 48 hrs in presence of beta-glucuronidase by MTT assay", "assay_type": "functional, cell-based"}, "MCF7 [5]": {"tested_on": "MCF7", "assay": "Antiproliferative activity against human MCF7 cells assessed as inhibition of cell growth incubated for 48 hrs in absence of beta-glucuronidase by MTT assay", "assay_type": "functional, cell-based", "conditions": "MCF7, 48 h"}, "[6]": {"assay": "Toxicity in nude mouse assessed as effect on neutrophil level at 40 mg/kg, iv administered qd for 3 days (reference value: 7.40 %)", "assay_type": "organism-based", "conditions": "in vivo, 72 h, time 3 day"}, "[7]": {"assay": "Toxicity in nude mouse assessed as effect on aspartate aminotransferase level in serum at 40 mg/kg, iv administered qd for 3 days (reference value: 424 U/L)", "assay_type": "organism-based", "conditions": "in vivo, 72 h, time 3 day"}, "MDA-MB-231 [8]": {"tested_on": "MDA-MB-231", "assay": "Antiproliferative activity against human MDA-MB-231 cells assessed as inhibition of cell growth incubated for 48 hrs in absence of beta-glucuronidase by MTT assay", "assay_type": "functional, cell-based", "conditions": "MDA-MB-231, 48 h"}, "[9]": {"assay": "Acute toxicity in BALB/c mouse assessed as animal survival at […], iv administered as single dose measured after 14 days", "assay_type": "organism-based", "conditions": "in vivo, time 14 day"}, "MDA-MB-231 [10]": {"tested_on": "MDA-MB-231", "assay": "Antitumour activity against human MDA-MB-231 cells xenografted in nude mouse assessed as tumor growth inhibition at 20 mg/kg,iv administered every 2 days for 14 days", "assay_type": "functional", "conditions": "MDA-MB-231, 336 h, time 14 day, read-out: TGI"}, "[11]": {"assay": "Chemical stability of compound at pH 7.4 in bovine serum at 1 mg incubated for 48 hrs by HPLC analysis", "assay_type": "ADME, cell-free", "conditions": "cattle, pH 7.4, 48 h"}, "[12]": {"assay": "Cardiotoxicity in nude mouse assessed as abnormal spikes at 20 to 40 mg/kg, iv administered once daily for 3 days by ECG analysis", "assay_type": "toxicity, organism-based", "conditions": "in vivo, 72 h, dose 20-40 mg/kg, time 3 day"}, "[13]": {"assay": "Toxicity in nude mouse assessed as effect on red blood cell count at 40 mg/kg, iv administered qd for 3 days (reference value: 0.21 10^12/L)", "assay_type": "organism-based", "conditions": "in vivo, 72 h, time 3 day"}, "[14]": {"assay": "Toxicity in nude mouse xenografted with human MDA-MB-231 cells assessed as pathological changes in kidney at 20 to 40 mg/kg, iv administered every 2 days for 14 days by H and E staining based assay", "assay_type": "organism-based", "conditions": "in vivo, 336 h, dose 20-40 mg/kg, time 14 day"}, "[15]": {"assay": "Toxicity in nude mouse assessed as effect on total protein level in serum at 40 mg/kg, iv administered qd for 3 days (reference value: 47.3 g/L)", "assay_type": "organism-based", "conditions": "in vivo, 72 h, time 3 day"}, "[16]": {"assay": "Stability of compound in phosphate buffer at pH 7.4 assessed as Escherichia coli beta-glucuronidase mediated compound cleavage at 1.2 mg measured after 30 mins by HPLC analysis", "assay_type": "ADME", "conditions": "pH 7.4, 0.5 h"}, "MCF7 [17]": {"tested_on": "MCF7", "assay": "Antiproliferative activity against human MCF7 cells assessed as inhibition of cell growth incubated for 48 hrs in presence of beta-glucuronidase by MTT assay", "assay_type": "functional, cell-based", "conditions": "MCF7, 48 h"}, "SK-OV-3": {"tested_on": "SK-OV-3", "assay": "Antiproliferative activity against human SK-OV-3 cells assessed as inhibition of cell growth incubated for 48 hrs in presence of beta-glucuronidase by MTT assay", "assay_type": "functional, cell-based", "conditions": "SK-OV-3, 48 h"}, "[18]": {"assay": "Metabolic stability in rat liver microsomes assessed as half life at 10 mM measured up to 60 mins in presence of NADPH by LC-MS/MS analysis", "assay_type": "ADME, Microsome"}, "[19]": {"assay": "Toxicity in nude mouse assessed as effect on mean corpuscular hemoglobin concentration at 40 mg/kg, iv administered qd for 3 days (reference value: 473 g/L)", "assay_type": "organism-based", "conditions": "in vivo, 72 h, time 3 day"}, "MDA-MB-231 [20]": {"tested_on": "MDA-MB-231", "assay": "Antitumour activity against human MDA-MB-231 cells xenografted in nude mouse assessed as reduction in tumor volume at 40 mg/kg, iv administered every 2 days for 14 days", "assay_type": "functional, organism-based", "conditions": "time 14.0 day"}, "[21]": {"assay": "Acute toxicity in BALB/c mouse assessed as lethal dose administered intravenously as single dose and measured after 14 days", "conditions": "in vivo, route iv, time 14 day"}, "MDA-MB-231 [22]": {"tested_on": "MDA-MB-231", "assay": "Antitumour activity against human MDA-MB-231 cells xenografted in nude mouse assessed as tumor growth inhibition at 40 mg/kg, iv administered every 2 days for 14 days", "assay_type": "functional", "conditions": "MDA-MB-231, 336 h, time 14 day, read-out: TGI"}, "[23]": {"assay": "Toxicity in nude mouse assessed as effect on white blood cell count at 40 mg/kg, iv administered qd for 3 days (reference value: 0.02 10^9/L)", "assay_type": "organism-based", "conditions": "in vivo, 72 h, time 3 day"}, "[24]": {"assay": "Toxicity in nude mouse assessed as effect on platelet distribution width at 40 mg/kg, iv administered qd for 3 days (reference value: 20.2)", "assay_type": "organism-based", "conditions": "in vivo, 72 h, time 3 day"}, "[25]": {"assay": "Toxicity in nude mouse assessed as effect on globulin level in serum at 40 mg/kg, iv administered qd for 3 days (reference value: 16.1 g/L)", "assay_type": "organism-based", "conditions": "in vivo, 72 h, time 3 day"}, "[26]": {"assay": "Aqueous solubility of compound in PBS at pH 7.4 at 1 mg incubated for 10 mins by HPLC analysis", "assay_type": "physicochemical"}, "[27]": {"assay": "Chemical stability of compound at pH 7.4 in PBS buffer at 1 mg incubated for 48 hrs by HPLC analysis", "assay_type": "physicochemical", "conditions": "pH 7.4, 48 h"}, "[28]": {"assay": "Metabolic stability in rat liver microsomes assessed as intrinsic clearance in microsomes at 10 mM measured up to 60 mins in presence of NADPH by LC-MS/MS analysis", "assay_type": "ADME, Microsome", "conditions": "read-out: CLH"}, "[29]": {"assay": "Toxicity in nude mouse xenografted with human MDA-MB-231 cells assessed as pathological changes in spleen at 20 to 40 mg/kg, iv administered every 2 days for 14 days by H and E staining based assay", "assay_type": "organism-based", "conditions": "in vivo, 336 h, dose 20-40 mg/kg, time 14 day"}, "[30]": {"assay": "Metabolic stability in rat liver microsomes assessed as intrinsic clearance in liver at 10 mM measured up to 60 mins in presence of NADPH by LC-MS/MS analysis", "assay_type": "ADME, Microsome", "conditions": "read-out: CLH"}, "MDA-MB-231 [31]": {"tested_on": "MDA-MB-231", "assay": "Antiproliferative activity against human MDA-MB-231 cells assessed as inhibition of cell growth incubated for 48 hrs in presence of beta-glucuronidase by MTT assay", "assay_type": "functional, cell-based", "conditions": "MDA-MB-231, 48 h"}, "[32]": {"assay": "Toxicity in nude mouse assessed as effect on total bilirubin level in serum at 40 mg/kg, iv administered qd for 3 days (reference value: 3.3 micromol/L)", "assay_type": "organism-based", "conditions": "in vivo, 72 h, time 3 day"}, "[33]": {"assay": "Toxicity in nude mouse assessed as effect on basophil level at 40 mg/kg, iv administered qd for 3 days (reference value: 11.70 %)", "assay_type": "organism-based", "conditions": "in vivo, 72 h, time 3 day"}, "[34]": {"assay": "Toxicity in nude mouse xenografted with human MDA-MB-231 cells assessed as effect on body weight at 20 to 40 mg/kg, iv administered every 2 days for 14 days", "assay_type": "organism-based", "conditions": "in vivo, 336 h, dose 20-40 mg/kg, time 14 day"}}, "note": "Activity calls are given as the source filed them. The rule behind the calls is not given here.", "data": [{"smiles": "COc1ccc([C@H]2[C@H](CO)C(=O)N2c2cc(OC)c(OC)c(OC)c2)cc1OCc1ccc(O[C@@H]2O[C@H](C(=O)O)[C@@H](O)[C@H](O)[C@H]2O)cc1", "values": [{"measurement": "Ratio", "setting": "[1]", "result": 1.59}, {"measurement": "Activity", "setting": "[2]", "result": "< 2", "unit": "U/L"}, {"measurement": "Activity", "setting": "[3]", "result": 22.3, "unit": "pg"}, {"measurement": "Activity", "setting": "[4]", "result": 57.2, "unit": "%"}, {"measurement": "IC50", "setting": "HeLa", "result": 8.9, "unit": "nM"}, {"measurement": "IC50", "setting": "MCF7 [5]", "result": "> 50", "unit": "µM"}, {"measurement": "Activity", "setting": "[6]", "result": 7.9, "unit": "%"}, {"measurement": "Activity", "setting": "[7]", "result": 503, "unit": "U/L"}, {"measurement": "IC50", "setting": "MDA-MB-231 [8]", "result": "> 50", "unit": "µM"}, {"measurement": "survival at 336 h", "setting": "[9]", "result": 75, "unit": "%"}, {"measurement": "inhibition in vivo at 20 mg/kg", "setting": "MDA-MB-231 [10]", "result": 50, "unit": "%"}, {"measurement": "Stability", "setting": "[11]", "result": "Stable"}, {"measurement": "Activity", "setting": "[12]", "result": "Non-Toxic"}, {"measurement": "Activity", "setting": "[13]", "result": "0.31 10^12/L"}, {"measurement": "Activity", "setting": "[14]", "result": "Non-Toxic"}, {"measurement": "Activity", "setting": "[15]", "result": 45.5, "unit": "g/L"}, {"measurement": "Stability", "setting": "[16]", "result": "Unstable"}, {"measurement": "IC50", "setting": "MCF7 [17]", "result": 15.7, "unit": "nM"}, {"measurement": "IC50", "setting": "SK-OV-3", "result": 14.1, "unit": "nM"}, {"measurement": "half-life", "setting": "[18]", "result": "> 145", "unit": "min"}, {"measurement": "Activity", "setting": "[19]", "result": 512, "unit": "g/L"}, {"measurement": "Activity", "setting": "MDA-MB-231 [20]", "result": "Active"}, {"measurement": "LD50 at 336 h", "setting": "[21]", "result": "> 500", "unit": "mg/kg"}, {"measurement": "inhibition in vivo at 40 mg/kg", "setting": "MDA-MB-231 [22]", "result": 63, "unit": "%"}, {"measurement": "Activity", "setting": "[23]", "result": "0.12 10^9/L"}, {"measurement": "Activity", "setting": "[24]", "result": 17}, {"measurement": "Activity", "setting": "[25]", "result": 16, "unit": "g/L"}, {"measurement": "solubility at 10 min", "setting": "[26]", "result": "> 40", "unit": "mg/mL"}, {"measurement": "Stability", "setting": "[27]", "result": "Stable"}, {"measurement": "microsomal CLint", "setting": "[28]", "result": "< 9.6", "unit": "µL/min/mg"}, {"measurement": "Activity", "setting": "[29]", "result": "Non-Toxic"}, {"measurement": "CLint scaled", "setting": "[30]", "result": "< 38", "unit": "mL/min/kg"}, {"measurement": "IC50", "setting": "MDA-MB-231 [31]", "result": 11.7, "unit": "nM"}, {"measurement": "Activity", "setting": "[32]", "result": 3.9, "unit": "µmol/L"}, {"measurement": "Activity", "setting": "[33]", "result": 6.8, "unit": "%"}, {"measurement": "Activity", "setting": "[34]", "result": "Non-Toxic"}]}]}
